Assays:
[1] = Cmax in Sprague-Dawley rat at 20 mg/kg, po measured upto 12 hrs by UPLC-MS/ESI analysis; type: ADME, organism-based; parameters: time < 12 hrs, dose 20 mg/kg, route po; details: in vivo
HepG2 [2] = experiment: Induction of apoptosis in human HepG2 cells assessed as late apoptotic cells at 0.5 nM incubated for 48 hrs by Annexin V-FITC/PI staining based flow cytometric analysis (reference value: 4.96 %); type: functional
HepG2 [3] = experiment: Cell cycle arrest in human HepG2 cells assessed as accumulation of cells at G1 phase at 5 nM incubated for 48 hrs by RNaseA/PI staining based flow cytometric analysis (reference value: 56.11%); type: functional
HepG2 [4] = experiment: Induction of apoptosis in human HepG2 cells assessed as necrotic cells at 1 nM incubated for 48 hrs by Annexin V-FITC/PI staining based flow cytometric analysis (reference value: 0.443%); type: functional
[5] = Acute toxicity in C57 mouse assessed as survival rate at 100 mg/kg, po administered daily for 14 days relative to control; type: organism-based; details: in vivo, time 14 day, read-out: Activity
HepG2 [6] = experiment: Antiproliferative activity against human HepG2 cells assessed as inhibition of cell proliferation incubated for 48 hrs by MTT assay; type: functional, cell-based; details: HepG2, 48 h
HepG2 [7] = experiment: Induction of apoptosis in human HepG2 cells assessed as early apoptotic cells at 0.5 nM incubated for 48 hrs by Annexin V-FITC/PI staining based flow cytometric analysis (reference value: 7.01 %); type: functional
HepG2 [8] = experiment: Induction of apoptosis in human HepG2 cells assessed as viable cells at 1 nM incubated for 48 hrs by Annexin V-FITC/PI staining based flow cytometric analysis (reference value: 87.6%); type: functional; details: read-out: Activity
[9] = Acute toxicity in C57 mouse assessed as survival rate at 80 mg/kg, po administered daily for 14 days relative to control; type: organism-based; details: in vivo, time 14 day, read-out: Activity
[10] = Toxicity in C57 mouse implanted with mouse B16-F10 cells assessed as pathological changes in heart at 2.5 mg/kg, ip administered every day for 14 days in the presence of NP19 by H&E staining based microscopic analysis; type: organism-based; details: in vivo, 336 h, time 14 day

`COc1cc(-c2nccc3[nH]c(-c4cccc5c4ccn5C)nc23)cc(OC)c1OC` showed a Cmax [1] of 879 ng/mL, an Activity (HepG2 [2]) of 6.41% and an Activity (HepG2 [3]) of 20.19%. It also gave an Activity (HepG2 [4]) of 0.189%, a survival at 336 h [5] of 0% and an IC50 (HepG2 [6]) of 1 nM. It also gave an Activity (HepG2 [7]) of 8.59%, a viability at 0.001 µM (HepG2 [8]) of 59.6% and a survival at 336 h [9] of 20%. The Activity [10] was “Non-Toxic”.

— ChEMBL document CHEMBL5338766, “X-ray Crystal Structure-Guided Discovery of Novel Indole Analogues as Colchicine-Binding Site Tubulin Inhibitors with Immune-Potentiating and Antitumor Effects against Melanoma” (J Med Chem, 2023)
